Results reported in patent publication US20110135763A1, “Antiseptic formulation especially for prevention of complications associated with skin burns” (priority 2009, published 2011).

Assays:
small capillaries = assay: inventor's experiments on the effect of DMSO on blood vessels; conditions: DMSO in a concentration ranging between 50% and 100%; best results at substantially 100%
Text: The higher the DMSO concentration was taken, the better result was achieved. Such phenomenon may effectively contribute to stopping leakage of capillaries and formation of blister, whereas the leakage and blister are the major factors leading to infections and delayed wound healing, and therefore to scar formation. […] The best results have been observed for usage of DMSO in the concentration of substantially 100%.
(d) DMSO (dimethyl sulfoxide) is known as an industrial solvent that has the ability to penetrate plant and animal tissues and to preserve living cells during freezing. It has bacteriostatic, anti-inflammatory, analgesic, radioprotective, fibrinolytic and vasodilative properties, and inhibits cholinesterase and granulation tissue. DMSO also has been used as an agent to increase the penetrability of other substances. […] This capability of DMSO has increased with an increase of the DMSO concentration, and the best results have been observed for usage of DMSO (USP grade) in the concentration essentially of 100%.

Human Leukocyte Elastase = molecular target: T1, Human Leukocyte Elastase (Homo sapiens, UniProt P08246); conditions: Q. Ying et al., 1991; cited from earlier work
T1 sequence (P08246 30-267): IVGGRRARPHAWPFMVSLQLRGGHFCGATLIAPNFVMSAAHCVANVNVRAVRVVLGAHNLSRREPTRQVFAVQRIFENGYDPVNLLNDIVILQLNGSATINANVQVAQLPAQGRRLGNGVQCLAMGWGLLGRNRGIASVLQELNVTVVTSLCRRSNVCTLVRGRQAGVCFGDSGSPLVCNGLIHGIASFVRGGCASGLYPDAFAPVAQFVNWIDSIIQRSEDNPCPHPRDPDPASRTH

Compound: C[S+](C)[O-] [DMSO, dimethyl sulfoxide]
- effect on small capillaries (small capillaries): constricts small capillaries

Compound: C[C@H]1[C@H](C)CC[C@]2(C(=O)O)CC[C@]3(C)C(=CC[C@@H]4[C@@]5(C)CC[C@H](O)C(C)(C)[C@@H]5CC[C@]43C)[C@H]12 [Ursolic acid]
- elastase inhibition (Human Leukocyte Elastase): potent elastase inhibitor
